Key:
Format in all cases: functional
786-0 = test: Growth inhibition of human 786-0 cells after 48 hrs by SRB staining method; details: 786-0, 48 h
NCI-H23 = test: Growth inhibition of human NCI-H23 cells after 48 hrs by SRB staining method; details: NCI-H23, 48 h
MDA-MB-231 = test: Growth inhibition of human MDA-MB-231 cells after 48 hrs by SRB staining method; details: MDA-MB-231, 48 h
NCI/ADR-RES = test: Growth inhibition of human NCI/ADR-RES cells after 48 hrs by SRB staining method
TK-10 = test: Growth inhibition of human TK10 cells after 48 hrs by SRB staining method; details: TK-10, 48 h
SK-MEL-5 = test: Growth inhibition of human SK-MEL-5 cells after 48 hrs by SRB staining method; details: SK-MEL-5, 48 h
M14 = test: Growth inhibition of human M14 cells after 48 hrs by SRB staining method; details: M14, 48 h
SNB-19 = test: Growth inhibition of human SNB19 cells after 48 hrs by SRB staining method; details: SNB-19, 48 h
EKVX = test: Growth inhibition of human EKVX cells after 48 hrs by SRB staining method
KM12 = test: Growth inhibition of human KM12 cells after 48 hrs by SRB staining method; details: KM12, 48 h
SK-MEL-28 = test: Growth inhibition of human SK-MEL-28 cells after 48 hrs by SRB staining method; details: SK-MEL-28, 48 h
IGROV-1 = test: Growth inhibition of human IGROV1 cells after 48 hrs by SRB staining method; details: IGROV-1, 48 h
MCF7 = test: Growth inhibition of human MCF7 cells after 48 hrs by SRB staining method; details: MCF7, 48 h
SK-OV-3 = test: Growth inhibition of human SKOV3 cells after 48 hrs by SRB staining method; details: SK-OV-3, 48 h
ACHN = test: Growth inhibition of human ACHN cells after 48 hrs by SRB staining method
DU-145 = test: Growth inhibition of human DU145 cells after 48 hrs by SRB staining method; details: DU-145, 48 h
PC-3 = test: Growth inhibition of human PC3 cells after 48 hrs by SRB staining method; details: PC-3, 48 h
SF-268 = test: Growth inhibition of human SF268 cells after 48 hrs by SRB staining method; details: SF-268, 48 h
CAKI-1 = test: Growth inhibition of human CAKI1 cells after 48 hrs by SRB staining method; details: CAKI-1, 48 h
K562 = test: Growth inhibition of human K562 cells after 48 hrs by SRB staining method; details: K562, 48 h
MDA-MB-435 = test: Growth inhibition of human MDA-MB-435 cells after 48 hrs by SRB staining method; details: MDA-MB-435, 48 h
T47D = test: Growth inhibition of human T47D cells after 48 hrs by SRB staining method
HCT-116 = test: Growth inhibition of human HCT116 cells after 48 hrs by SRB staining method; details: HCT-116, 48 h
OVCAR-8 = test: Growth inhibition of human OVCAR8 cells after 48 hrs by SRB staining method; details: OVCAR-8, 48 h
U-251 = test: Growth inhibition of human U251 cells after 48 hrs by SRB staining method; details: U-251, 48 h
A549 = test: Growth inhibition of human A549 cells after 48 hrs by SRB staining method; details: A549, 48 h
RXF 393 = test: Growth inhibition of human RXF393 cells after 48 hrs by SRB staining method; details: RXF 393, 48 h
A498 = test: Growth inhibition of human A498 cells after 48 hrs by SRB staining method; details: A498, 48 h
NCI-H460 = test: Growth inhibition of human NCI-H460 cells after 48 hrs by SRB staining method; details: NCI-H460, 48 h
UACC-62 = test: Growth inhibition of human UACC62 cells after 48 hrs by SRB staining method; details: UACC-62, 48 h
UACC-257 = test: Growth inhibition of human UACC257 cells after 48 hrs by SRB staining method; details: UACC-257, 48 h
SF-295 = test: Growth inhibition of human SF295 cells after 48 hrs by SRB staining method; details: SF-295, 48 h
SR = test: Growth inhibition of human SR cells after 48 hrs by SRB staining method
[1] = read-out: pLC50 (the source's name) (converted)

**Q.** What does the source list for `COc1cc(Nc2nc3cc(N)cc(N)c3nc2-c2ccccc2)cc(OC)c1OC`?
**A.** GI50 (786-0): 14.5 µM; CC50 (786-0; [1]): > 100 µM; TGI (786-0; read-out: pTGI (converted)): 40.7 µM; GI50 (NCI-H23): 25.1 µM; LC50 (NCI-H23): > 100 µM; TGI (NCI-H23; read-out: pTGI (converted)): 75.9 µM; GI50 (MDA-MB-231): 11.2 µM; CC50 (MDA-MB-231; [1]): 77.6 µM; TGI (MDA-MB-231; read-out: pTGI (converted)): 29.5 µM; GI50 (NCI/ADR-RES): 14.5 µM; CC50 (NCI/ADR-RES; [1]): > 100 µM; TGI (NCI/ADR-RES; read-out: pTGI (converted)): 43.7 µM; GI50 (TK-10): 24 µM; CC50 (TK-10; [1]): > 100 µM; TGI (TK-10; read-out: pTGI (converted)): 66.1 µM; GI50 (SK-MEL-5): 12.9 µM; LC50 (SK-MEL-5): 58.9 µM; TGI (SK-MEL-5; read-out: pTGI (converted)): 27.5 µM; GI50 (M14): 19.5 µM; LC50 (M14): > 100 µM; TGI (M14; read-out: pTGI (converted)): 44.7 µM; GI50 (SNB-19): 33.1 µM; LC50 (SNB-19): > 100 µM; TGI (SNB-19; read-out: pTGI (converted)): > 100 µM; GI50 (EKVX): 17.8 µM; CC50 (EKVX; [1]): > 100 µM; TGI (EKVX; read-out: pTGI (converted)): 47.9 µM; GI50 (KM12): 10.7 µM; LC50 (KM12): 81.3 µM; TGI (KM12; read-out: pTGI (converted)): 29.5 µM; GI50 (SK-MEL-28): 1.45 µM; CC50 (SK-MEL-28; [1]): 63.1 µM; TGI (SK-MEL-28; read-out: pTGI (converted)): 20.9 µM; GI50 (IGROV-1): 15.8 µM; LC50 (IGROV-1): > 100 µM; TGI (IGROV-1; read-out: pTGI (converted)): 57.5 µM; GI50 (MCF7): 25.7 µM; CC50 (MCF7; [1]): > 100 µM; TGI (MCF7; read-out: pTGI (converted)): 95.5 µM; GI50 (SK-OV-3): 22.9 µM; CC50 (SK-OV-3; [1]): > 100 µM; TGI (SK-OV-3; read-out: pTGI (converted)): 57.5 µM; GI50 (ACHN): 16.6 µM; CC50 (ACHN; [1]): > 100 µM; TGI (ACHN; read-out: pTGI (converted)): 42.7 µM; GI50 (DU-145): 21.9 µM; CC50 (DU-145; [1]): > 100 µM; TGI (DU-145; read-out: pTGI (converted)): 74.1 µM; GI50 (PC-3): 14.1 µM; CC50 (PC-3; [1]): > 100 µM; TGI (PC-3; read-out: pTGI (converted)): 58.9 µM; GI50 (SF-268): 18.2 µM; CC50 (SF-268; [1]): > 100 µM; TGI (SF-268; read-out: pTGI (converted)): 60.3 µM; GI50 (CAKI-1): 15.5 µM; CC50 (CAKI-1; [1]): > 100 µM; TGI (CAKI-1; read-out: pTGI (converted)): 49 µM; GI50 (K562): 12.6 µM; CC50 (K562; [1]): > 100 µM; TGI (K562; read-out: pTGI (converted)): 39.8 µM; GI50 (MDA-MB-435): 7.41 µM; CC50 (MDA-MB-435; [1]): 69.2 µM; TGI (MDA-MB-435; read-out: pTGI (converted)): 24.5 µM; GI50 (T47D): 6.03 µM; CC50 (T47D; [1]): 95.5 µM; TGI (T47D; read-out: pTGI (converted)): 31.6 µM; GI50 (HCT-116): 15.5 µM; LC50 (HCT-116): 75.9 µM; TGI (HCT-116; read-out: pTGI (converted)): 33.9 µM; GI50 (OVCAR-8): 15.5 µM; CC50 (OVCAR-8; [1]): 79.4 µM; TGI (OVCAR-8; read-out: pTGI (converted)): 34.7 µM; GI50 (U-251): 24.5 µM; LC50 (50% lethal concentration) (U-251): > 100 µM; TGI (U-251; read-out: pTGI (converted)): > 100 µM; GI50 (A549): 29.5 µM; CC50 (A549; [1]): > 100 µM; TGI (A549; read-out: pTGI (converted)): > 100 µM; GI50 (RXF 393): 14.5 µM; CC50 (RXF 393; [1]): 83.2 µM; TGI (RXF 393; read-out: pTGI (converted)): 34.7 µM; GI50 (A498): 31.6 µM; CC50 (A498; [1]): > 100 µM; TGI (A498; read-out: pTGI (converted)): > 100 µM; GI50 (NCI-H460): 17 µM; LC50 (concentration killing 50% of cells) (NCI-H460): > 100 µM; TGI (NCI-H460; read-out: pTGI (converted)): 52.5 µM; GI50 (UACC-62): 13.5 µM; LC50 (UACC-62): 74.1 µM; TGI (UACC-62; read-out: pTGI (converted)): 31.6 µM; GI50 (UACC-257): 29.5 µM; LC50 (UACC-257): > 100 µM; TGI (UACC-257; read-out: pTGI (converted)): > 100 µM; GI50 (SF-295): 15.8 µM; LC50 (SF-295): > 100 µM; TGI (SF-295; read-out: pTGI (converted)): 42.7 µM; GI50 (SR): 3.31 µM; CC50 (SR; [1]): 72.4 µM; TGI (SR; read-out: pTGI (converted)): 15.8 µM

From ChEMBL document CHEMBL1149774, “Synthesis of N-(5,7-diamino-3-phenyl-quinoxalin-2-yl)-3,4,5-substituted anilines and N-[4[(5,7-diamino-3-phenylquinoxalin-2-yl)amino]benzoyl]-l-glutamic acid diethyl ester: evaluation of in vitro anti-cancer and anti-folate activities” (Eur J Med Chem, 2008)
